Row | melting point [°C] | Compound
1 | 72 to 74 | OC1(Cc2ccccc2)CCN(CCC(c2ccccc2)(c2ccccc2)c2ccccc2)CC1
2 | 120 | Cc1c(C)c2c(c(C)c1O)CC[C@@](C)(CCBr)O2
3 | 110 to 114 | COC(=O)CCC(C)C1CCC2C3C(O)CC4CC(NC(=O)CNC(=O)OC(C)(C)C)CCC4(C)C3CC(O)C12C (configuration not stated)
4 | 181 to 185 | N#Cc1c(N2CCc3ccccc3CC2)nc(CO)n(CC(F)(F)F)c1=O
5 | 58 to 62 | O=C(CC(F)=C(F)F)Oc1ccc([N+](=O)[O-])cc1
6 | 99 to 101 | CC(C)(C)c1cc(O)no1
7 | 96 to 98 | O=C(CCCCCBr)Nc1ccc(C(F)(F)F)cc1
8 | 88 | CCCCc1nc(C(=O)OC)c(C(=O)OC)[nH]1
9 | 90 to 91 | COC(=O)C[C@@H](CC(=O)C=Cc1c(-c2ccc(F)cc2)c(-c2ccccc2)c(C(=O)Nc2cccc(S(N)(=O)=O)c2)n1C(C)C)O[Si](C)(C)C(C)(C)C
10 | 84 to 85 | COC(=O)c1ccc(OCCNC(=O)C2Cc3ccccc3N2S(=O)(=O)c2ccc(-c3cc(C(F)(F)F)ccc3Cl)cc2)cc1F (configuration not stated)
11 | 208 to 210 | O=C(Nc1cccc(F)c1)N1CCc2cc(S(=O)(=O)N3CCN(c4cccc(Cl)c4)CC3)ccc21
12 | 170 to 171 | COCC(=O)Nc1c(Cl)c(C)cc2nc(OC)c(OC)nc12
13 | 137 to 140 | CO/C=C(/C(=O)OC)c1ccccc1Oc1ncnc(Cl)n1
14 | 105 to 107 | CCC(CC)Oc1cc(C)nc(Nc2c(C)cc(C)cc2C)c1C#N
15 | 123 to 124 | CC(OC(=O)Nc1ccc(-c2ncn(-c3ccc(OC(F)(F)F)cc3)n2)cc1)C1CC1 (configuration not stated)
16 | 106 to 108 | COc1cc2c3ccc(OC)c(OC)c3n(C(=O)CCc3ccccc3)c2cc1OC
17 | 121 to 123 | COC(=O)CCC(=O)Nc1cccc(COc2ccc(C(C)=O)c(O)c2)c1
18 | 95 to 96 | O=c1c(Br)c(Br)cnn1Cc1ccccc1
19 | 102 to 104 | CC(C)N(C)c1nccc(Oc2ccc(NC(=O)c3cc(F)cc(N4CCCCC4)c3)c3ccccc23)n1
20 | 163 to 166 | OCCOc1ccc(Nc2cc(Nc3ccccc3F)ncn2)cc1
21 | 85 to 87 | C[C@@H]1CN(C(=O)OC(C)(C)C)Cc2cc3cc(F)cnc3n21
22 | 66 to 67 | CC(C)c1ccccc1SC1=C(O)CC(CCc2ccccc2)(c2ccccc2)OC1=O (configuration not stated)
23 | 238 | CC(C)c1ccc(C(=O)C2=C(O)C(=O)N(c3ncc(Sc4ccc([N+](=O)[O-])cc4)s3)C2c2ccc(OC(F)(F)F)cc2)cc1 (configuration not stated)
24 | 220 to 222 | O=C(Nc1ccc(C(=O)N2Cc3cccn3Cc3ccccc32)cc1)c1sc2ccccc2c1Cl

Row | melting point [°C] | Compound
25 | 258 to 262 | N#Cc1ccc(N2CCN(c3ccc(O)cc3)CC2)cc1
26 | 67 | CCCN(CCc1c[nH]c2ccc(F)cc12)C1COc2ccc3ncccc3c2C1 (configuration not stated)
27 | 160 to 166 | CC(C)c1nc(CO)n(Cc2ccccc2[N+](=O)[O-])c1Sc1cc(Cl)cc(Cl)c1
28 | 115 to 121 | O=C=Nc1cccc(-c2nc3ccccc3c(=O)o2)c1
29 | 80 to 82 | CC(C)(CO)NC(=O)c1ccccc1
30 | 111 to 113 | CCn1ncc2c(Cl)c3c(nc21)CCc1ccccc1C3=O
31 | 148 | CCOC(=O)N1CCC(Nc2nc3cccnc3n2Cc2ccc(CO)o2)CC1
32 | 71 to 72 | CC(C)C(C#N)c1ccc([N+](=O)[O-])cc1 (configuration not stated)
33 | 206 to 207 | Cc1c(C)c2c(c(C)c1NC(=O)CCC(F)(F)F)C(c1ccc(C(C)C)cc1)CO2 (configuration not stated)
34 | 188 to 190 | O=C(O)Cc1ccc2c(c1)C(=O)c1ccc(Cl)cc1CO2
35 | 124 to 126 | CSc1ccc(N(C(C)C)S(=O)(=O)c2ccc(C)cc2)c([N+](=O)[O-])c1
36 | 100 to 101 | Cc1cc(-c2cc(N)n3nc(-c4ccco4)nc3c2)ccn1
37 | 160 to 161 | COC(=O)CCCS(=O)c1c(Cc2cccc3ccccc23)sc2c1c(=O)n(C)c(=O)n2CC(C)C (configuration not stated)
38 | 164 to 165 | CC(=O)c1ccc(NC(=O)NCC2(c3ccccc3)CCCCC2)cc1
39 | 190 to 195 | C#Cc1cnc(C2=NC(C)(C(C)C)C(=O)N2)c(C(=O)O)c1 (configuration not stated)
40 | 139 to 140 | O=c1cc(CO)oc2cc(S)ccc12
41 | 328 | CCOC(=O)c1c[nH]c2cnc3c(F)c(Cl)c(F)cc3c2c1=O
42 | 66 | C=CCNC(=O)NC(CCC)(CCC)CCC
43 | 132 to 135 | COC(=O)C(Cc1ccc(O)c(O)c1)NC(=O)OC(C)(C)C (configuration not stated)
44 | 132 | Clc1ncccc1OCC1CO1 (configuration not stated)
45 | > 300 | Cc1[nH]c(=O)c(C#N)c2c1CC(c1ccccn1)CC2 (configuration not stated)
46 | 202 to 204 | CCCCCN1C(=O)C(CCC(=O)O)(NC(=O)c2ccc(Cl)c(Cl)c2)c2ccccc21 (configuration not stated)
47 | 199 to 202 | CC1SC(=NO)C(C)(C)NC1=O (configuration not stated)
48 | 151 to 152 | Cc1nc(O)sc1CCCl

Row | melting point [°C] | Compound
49 | 150 to 154 | CC(C)(Cc1c[nH]c2ccccc12)NCC(O)COc1ccccc1Cl (configuration not stated)
50 | 111 to 113 | O=C(c1ccc(Oc2ccccc2)c([N+](=O)[O-])c1)c1ccc(Oc2ccccc2)c([N+](=O)[O-])c1
51 | 141 to 144 | Clc1cccc2c1nnn2C1CCCCC1
52 | 121 to 140 | CCN(CC)Cc1cc(C2(c3cccc(-c4cccnc4F)c3)N=C(N)N(C)C2=O)cn1CCF (configuration not stated)
53 | 109 to 110 | CC(C)C[C@@H](C=O)NC(=O)[C@H](Cc1c[nH]cn1)NC(=O)[C@H](Cc1c[nH]c2ccccc12)NC(=O)OCc1ccccc1
54 | 186 to 190 | Cc1ccc2c(O)cc(=O)oc2c1C
55 | 59 to 61 | CC(C)c1nc(COC(=O)N[C@@H](C)C(=O)N[C@@H](Cc2ccccc2)C[C@H](O)[C@H](Cc2ccccc2)NC(=O)OCc2cncs2)cs1
56 | 335 to 338 | COc1cc(C=C2SC(N3CCOCC3)=NC2=O)cc(-c2ccc(O)c(C34CC5CC(CC(C5)C3)C4)c2)c1O
57 | 111 to 112 | CCOC(=O)CCC(=O)N[C@@H](CC(C)C)C(=O)N[C@@H](C(C)C)[C@@H](O)c1c(-c2ccccc2)c1=O
58 | 234 to 240 | Cc1nc(NC(=O)NS(=O)(=O)c2cccc3c2nnn3C)nc2c1CCO2
59 | 194 to 196 | COc1cc2ncc(NC3CCCCC3)nc2cc1N1CCOCC1
60 | 117 | CCC1CC(=O)N(Cc2ccc(NC(=O)C(C)(C)C)cc2)N=C1c1ccc(OC)c(OC)c1 (configuration not stated)
61 | 301 to 303 | CCOC(=O)Cc1c2c(nn1-c1ccccc1)c(=O)[nH]c1ccccc12
62 | 110 to 112 | COC(=O)c1nc(Cl)nc(NCc2ccco2)c1Cl
63 | 169 to 171 | O=C(NCc1ccn(-c2cc3nc(C(=O)O)c(=O)[nH]c3cc2C(F)(F)F)c1)Nc1cccc(F)c1
64 | 208 to 210 | O=C(O)COc1ccccc1-c1ccc(Cl)c(C(=O)NCC23CC4CC(CC(C4)C2)C3)c1
65 | > 300 | NC(=O)c1ccc(-c2nccc3[nH]c(=O)ccc23)cc1
66 | 262 | CCCn1c(=O)c2[nH]c(/C=C/c3ccc(OCC)cc3)nc2n(CCC)c1=O
67 | 124 to 127 | CN1CC(CO)C2c3cccc4c3c(cn4S(=O)(=O)c3ccccc3)CC21 (configuration not stated)
68 | 65 to 66 | COC(=O)C1=CCCN(C2CCc3ccc(OC)cc3C2)C1 (configuration not stated)
69 | 209 to 210 | N#Cc1cccc(-n2c(=O)oc3ccc(-c4ccc(F)cc4F)cc3c2=O)c1
70 | 100 to 101 | CCCCCCCNC(=O)N(C)c1cccc(-c2ccc(CCC(=O)NO)cc2)c1
71 | 212 to 213 | CCN1CCCC(NC(=O)c2ccccc2Nc2ccnc3c(C(F)(F)F)cccc23)C1 (configuration not stated)
72 | 200 to 203 | O=C(O)Cn1cc(Cc2nc3c(F)c(F)cc(F)c3s2)c2ccc(F)cc21

Row | melting point [°C] | Compound
73 | 57 to 59 | C#Cc1ccc(-c2ccccc2)c(C)c1
74 | 109 | O=[N+]([O-])c1c(Br)nn(Cc2ccc(Cl)cc2)c1Br
75 | 207 to 208 | CC1(C)OC(=O)Nc2ccc(-c3ccc(F)c(F)c3)cc21
76 | 166 to 167 | CCC(C(=O)O)c1ccc(N[C@@H](CCC(N)=O)C(=O)O)cc1 (some centres not stated)
77 | 198 to 200 | NC(=O)c1cccc2nc3n(c12)CCCN3c1ccc(Cl)cc1Cl
78 | 82 to 87 | CC(=O)N1CCC(C(=O)c2cc(F)ccc2F)CC1
79 | 269 to 272 | COc1ccccc1-n1c(=O)[nH]c2c(C(N)=O)nc(-c3cccc(OC(F)(F)F)c3)nc21
80 | 200 to 201 | CCCCc1nc2c(N)nc3ccccc3c2n1CCCNC(=O)NC1CCCCC1
81 | 160 to 163 | Cc1nc(C)c(Cl)c(NCc2nccc(SCCOCCn3c([N+](=O)[O-])cnc3C)c2C)n1
82 | 76 to 78 | CCCCn1c(=O)c2c(nc(C)n2S(=O)(=O)CCCCl)n(CCCC)c1=O
83 | 103 to 104 | CC(C)(C)OC(=O)N1CC(c2ccc(N)nc2)C1
84 | 186 to 187 | CC(=O)NNC(=O)c1ccc(Br)c(C)c1
85 | 211 to 212 | Cc1ncc2c(n1)-c1ccccc1N(C(=O)c1ccc([N+](=O)[O-])cc1)CC2
86 | 148 to 151 | COc1nc(N)nc(-c2ccc(S(C)(=O)=O)cc2)c1-c1ccc(=O)n(C(C)C)n1
87 | 205 to 207 | COc1ncnc2nc(-c3ccccc3)cnc12
88 | 124 to 125 | CCC(CC)N(O)C(=O)Nc1ccc(Oc2ccccc2)cc1
89 | 124 | COCc1cc(=O)c(Oc2ccc(F)cc2F)c(-c2ccc(S(C)(=O)=O)cc2)o1
90 | > 270 | CN1CCC(C2=C(C#N)C(c3cccc4nonc34)c3c[nH]nc3N2)CC1 (configuration not stated)
91 | 194 to 195 | CC(C)(C)c1cc(NC(=O)NCc2ccc(N)cc2)cc(C(C)(C)C)c1O
92 | 172 to 173 | Nc1nc(NCCOc2ccccc2)nc(-c2cc(Cl)ccc2Cl)n1
93 | 243 to 244 | COc1cc2ncnc(N3CCCN(C(=O)Nc4ccc([N+](=O)[O-])cc4)CC3)c2cc1OC

Row | Compound | melting point [°C]
94 | N#CC(C#N)(CCSC(F)(F)C(F)Cl)CC(F)(F)C(F)(F)C(F)(F)C(F)F (configuration not stated) | 78 to 80
95 | CCCCP(=O)(C(=O)c1c(C)cc(C)cc1C)C(=O)c1c(OC)cccc1OC (configuration not stated) | 94 to 96
96 | CNC(=N[N+](=O)[O-])NCCSCc1[nH]cnc1C | 112 to 114
97 | N#Cc1ccc(N2C(=O)NC3(CCSCC3)C2=O)cc1C(F)(F)F | 209 to 210

From a melting point compilation (Tetko et al.; mined from patent text by program, amines drawn as free bases though some values may be those of a salt)
